Source: patent US20190369111A1, “MOLECULAR KINETICS EVALUATION METHOD AND SCREENING METHOD” (Tokyo University of Science Foundation, priority 2016, published 2019)

Target: endogenous wild-type p53 protein (Homo sapiens, UniProt P04637)
Assay: Degradation of endogenous wild-type p53 protein in HCT116 cells, Western blot analysis
Type: cell-based
Set-up: an endogenous wild-type p53 protein and MDM2 protein in HCT116 cells (human large intestine cancer cells); endogenous in cells; host or cells: HCT116 cells
Conditions: 48 hours after addition
Description: HCT116 cells were seeded in a 24-well plate at a cell density of 8×10^4 cells/well, and then cultured under conditions of 37° C. and 5 vol % CO2 for 16 hours.
After 16 hours from cell seeding, TIBC-CANDDY_MLN or TIBC was added to HCT116 cells as follows. As a medium, a serum-free medium (37° C.) in which 1 mass % L-glutamine solution (Sigma-Aldrich) was added to D-MEM (high D-glucose, phenol red, sodium pyruvate (Wako Pure Chemical Industries, Ltd.)) was used. It is noted that the L-glutamine solution was added immediately before use. A DMSO solution containing TIBC-CANDDY_MLN or TIBC was mixed with the medium so that the concentration of DMSO was 1 vol %, and added to each well at 500 μL/well, and cultured under conditions of 37° C. and 5 vol % CO2. As a control, DMSO was used.
The medium was removed 48 hours after addition of TIBC-CANDDY_MLN or TIBC, and then PBS was added to wash the cells. […]
After electrophoresis, proteins were transferred to a PVDF membrane (Immobion™-P, Millipore) under conditions of 100 V and 2 hours using a tank-type blotting device and a transfer buffer (25 mM Tris-HCl, 195 mM glycine, 0.01% SDS, 15% methanol). […] Subsequently, the membrane was treated with a chemiluminescence reagent Immobilon™ Western (Millipore), and then chemiluminescence was detected using a lumino image analyzer LAS-3000 (FUJIFILM Corporation).

endogenous wild-type p53 protein, sequence (P04637 whole entry): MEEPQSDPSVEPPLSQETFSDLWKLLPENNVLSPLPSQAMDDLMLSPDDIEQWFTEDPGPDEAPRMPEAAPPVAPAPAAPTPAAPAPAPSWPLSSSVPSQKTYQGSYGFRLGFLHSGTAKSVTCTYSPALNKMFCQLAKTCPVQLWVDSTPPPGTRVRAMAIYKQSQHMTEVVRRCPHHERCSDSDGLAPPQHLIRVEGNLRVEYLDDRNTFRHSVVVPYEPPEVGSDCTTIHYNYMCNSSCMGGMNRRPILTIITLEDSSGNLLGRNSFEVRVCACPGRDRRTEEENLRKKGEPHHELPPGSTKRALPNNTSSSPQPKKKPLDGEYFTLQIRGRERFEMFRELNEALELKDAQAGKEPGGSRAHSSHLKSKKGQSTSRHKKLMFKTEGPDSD

amount of endogenous wild-type p53 protein: reduced
Structure (SMILES): CC(C)C[C@H](NC(=O)CNC(=O)c1cc(Cl)ccc1Cl)C(=O)NCCCCCCC(=O)Nc1ccc(C(=O)/C=C/c2ccc(I)cc2)cc1 [TIBC-CANDDY_MLN]
